These results are taken from paper PMC11650849, “Brain endothelial permeability, transport, and flow assessed over 10 orders of magnitude using the in situ brain perfusion technique” (Fluids and Barriers of the CNS, 2024).

Read-outs that look alike come from different tables or passages of the source.

For one series, the target named is T1, GLUT1 (Rattus norvegicus, UniProt P11167).
T1 construct: from tissue; host or cells: brain vascular endothelium (BBB) of the in situ perfused brain
T1 sequence (P11167 1-492): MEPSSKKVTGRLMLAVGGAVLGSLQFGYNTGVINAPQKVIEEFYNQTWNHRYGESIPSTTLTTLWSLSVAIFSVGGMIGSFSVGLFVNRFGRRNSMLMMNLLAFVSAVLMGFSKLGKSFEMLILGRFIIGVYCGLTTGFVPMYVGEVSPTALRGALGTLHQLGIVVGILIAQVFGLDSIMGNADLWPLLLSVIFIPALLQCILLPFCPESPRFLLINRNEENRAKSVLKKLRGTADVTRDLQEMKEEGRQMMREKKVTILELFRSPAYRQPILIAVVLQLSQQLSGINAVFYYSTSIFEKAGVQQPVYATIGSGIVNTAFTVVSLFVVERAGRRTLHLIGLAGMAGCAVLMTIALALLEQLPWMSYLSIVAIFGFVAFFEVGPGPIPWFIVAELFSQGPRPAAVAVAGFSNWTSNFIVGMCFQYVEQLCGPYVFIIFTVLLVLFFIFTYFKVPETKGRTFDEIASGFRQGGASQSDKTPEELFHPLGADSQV
Description: In situ brain perfusion, facilitated nutrient transport by GLUT1. It counts as in vivo. The settings on record: facilitated nutrients.

For series [1] the following is noted: pH 7.4.
Series [2] is described as follows: Neutral fraction at pH 7.4 calculated from pKa. It counts as physicochemical.
The conditions of series [3]: rat.
The conditions of series [4]: cited from earlier work; for Log Poct: octanol partition coefficient.
For series [5] the following is noted: rat, in vivo; cited from earlier work.
The conditions of series [6]: cited from earlier work.
The conditions of series [7]: rat. The source holds these as a separate data set.
The nature of another series: in vivo. The note with it: rat, pH 7.4.
The subject of the next series is Choline transporter. The settings on record: facilitated nutrients.
Series [8] in a line: Octanol/water partition and distribution coefficients. The settings on record: for Log Doct 7.4: octanol distribution coefficient, pH 7.4; for Log Poct: octanol partition coefficient.
A further series concerns the target Lat-1 (Rattus norvegicus, UniProt Q63016).
The target in the next series is T2, MAT1 (Rattus norvegicus, UniProt P53987).
T2 sequence (P53987 1-494): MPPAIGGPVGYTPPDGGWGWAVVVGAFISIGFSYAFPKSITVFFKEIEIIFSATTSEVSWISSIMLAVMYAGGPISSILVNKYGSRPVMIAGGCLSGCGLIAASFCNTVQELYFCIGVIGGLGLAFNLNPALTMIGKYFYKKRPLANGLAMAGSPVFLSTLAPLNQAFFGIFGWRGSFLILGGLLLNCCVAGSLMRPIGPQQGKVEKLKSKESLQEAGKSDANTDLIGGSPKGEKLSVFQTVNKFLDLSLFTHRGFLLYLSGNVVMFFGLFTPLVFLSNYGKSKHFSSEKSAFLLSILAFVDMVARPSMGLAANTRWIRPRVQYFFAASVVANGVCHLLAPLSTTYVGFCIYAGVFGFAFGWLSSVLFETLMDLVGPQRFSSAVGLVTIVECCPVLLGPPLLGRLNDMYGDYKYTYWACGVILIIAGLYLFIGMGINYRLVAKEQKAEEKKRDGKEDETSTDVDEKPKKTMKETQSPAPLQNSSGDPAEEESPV
The settings on record: facilitated nutrients, MAT1, S 30 s.

For series [9] the following is noted: ref Fenstermacher (papers of the 1990s and 2000s); cited from earlier work.
For series [10] the following is noted: rat in vivo measurements; cited from earlier work.
A further series has as its target MCT8 L-T3 Transporter (Rattus norvegicus, UniProt Q8K1P8).
For series [11] the following is noted: ref Chou and Rowland [106]; cited from earlier work.
Setting [12] is: neutral fraction at perfusion fluid pH 7.40, calculated from pKa.
The mark [13] stands for this setting: ref Hansch et al. [123], Avdeef [46] or other sources.
Setting [14] is: LAT1 substrates, tracer concentration.
Where [15] appears, read: LAT1 substrates, tracer concentration, perfusion 15-30 s.

Chain of Lat-1 (Q63016 whole entry): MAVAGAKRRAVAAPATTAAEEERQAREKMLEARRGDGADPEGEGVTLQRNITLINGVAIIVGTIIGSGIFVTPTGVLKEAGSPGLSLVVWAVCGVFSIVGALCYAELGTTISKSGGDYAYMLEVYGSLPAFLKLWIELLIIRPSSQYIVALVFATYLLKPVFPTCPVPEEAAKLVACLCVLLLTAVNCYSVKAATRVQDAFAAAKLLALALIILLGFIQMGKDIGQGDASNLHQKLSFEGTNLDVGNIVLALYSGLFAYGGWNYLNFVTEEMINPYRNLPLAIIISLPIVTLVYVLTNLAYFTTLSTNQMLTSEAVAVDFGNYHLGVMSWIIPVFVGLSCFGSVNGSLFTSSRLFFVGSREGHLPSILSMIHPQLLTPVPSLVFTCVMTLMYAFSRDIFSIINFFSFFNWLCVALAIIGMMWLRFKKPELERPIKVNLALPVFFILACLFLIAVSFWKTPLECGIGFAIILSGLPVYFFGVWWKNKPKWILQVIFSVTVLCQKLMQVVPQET
Chain of Lat-1 (Q794F9 whole entry partner): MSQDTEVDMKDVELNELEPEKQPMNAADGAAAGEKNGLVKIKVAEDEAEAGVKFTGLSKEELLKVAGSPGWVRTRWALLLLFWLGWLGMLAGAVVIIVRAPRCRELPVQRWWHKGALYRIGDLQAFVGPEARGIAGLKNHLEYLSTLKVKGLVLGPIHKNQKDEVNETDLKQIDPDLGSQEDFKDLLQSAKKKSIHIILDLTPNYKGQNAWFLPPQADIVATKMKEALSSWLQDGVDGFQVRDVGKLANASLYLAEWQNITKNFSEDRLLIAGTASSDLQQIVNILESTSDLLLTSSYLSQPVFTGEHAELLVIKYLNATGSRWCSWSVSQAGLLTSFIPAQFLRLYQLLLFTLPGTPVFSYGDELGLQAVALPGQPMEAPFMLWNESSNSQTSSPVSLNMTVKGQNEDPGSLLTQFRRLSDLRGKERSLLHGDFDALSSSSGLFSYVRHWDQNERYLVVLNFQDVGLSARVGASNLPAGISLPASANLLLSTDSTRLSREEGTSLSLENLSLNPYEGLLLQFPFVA
Chain of MCT8 L-T3 Transporter (Q8K1P8 whole entry): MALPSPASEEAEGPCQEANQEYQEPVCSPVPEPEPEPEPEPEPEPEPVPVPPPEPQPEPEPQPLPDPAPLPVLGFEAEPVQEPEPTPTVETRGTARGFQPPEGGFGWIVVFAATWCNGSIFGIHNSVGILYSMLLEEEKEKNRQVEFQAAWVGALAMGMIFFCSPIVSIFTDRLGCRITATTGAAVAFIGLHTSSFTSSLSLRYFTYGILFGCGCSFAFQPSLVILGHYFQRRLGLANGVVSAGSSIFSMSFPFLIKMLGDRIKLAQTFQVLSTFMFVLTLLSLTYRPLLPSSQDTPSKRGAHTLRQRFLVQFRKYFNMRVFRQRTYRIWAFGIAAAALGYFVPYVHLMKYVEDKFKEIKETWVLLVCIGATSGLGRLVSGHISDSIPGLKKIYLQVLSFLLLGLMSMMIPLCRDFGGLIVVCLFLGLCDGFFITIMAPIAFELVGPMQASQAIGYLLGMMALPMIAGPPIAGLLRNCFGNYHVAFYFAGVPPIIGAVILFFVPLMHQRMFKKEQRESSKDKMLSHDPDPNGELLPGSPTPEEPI

With `OC[C@H]1OC(O)[C@H](O)[C@@H](O)[C@@H]1O` (stereo partly drawn) [D-Glucose], the “Log PS” value on GLUT1 (GLUT1) is listed as −2.16. The same compound showed a PS on GLUT1 (GLUT1, S 16 s) of 0.00694 mL/s/g. Also, the “Log Doct 7.4” value in series [1] is recorded as −1.88.
As for `OCCO` [Ethylene glycol], in series [2] (pH 7.4), the “fn (%)” value was 100%. The “E of permeability markers” value in [3] is given as 2–4%. Also, in series [3] (in vivo), the “BBB PS / PoS over the flow range” value is 4 - 7x 10^-4, the “Log Pc” value is on record as −5.24, the “Log PoS” value was −3.24 and the “PS Average used for normalization” value amounted to 0.0006 mL/s/g. For the same compound, in series [3] (in vivo), the Pc is 5.69e-06 cm/s; the PcS was 0.00057 mL/s/g; the PoS stood at 0.000569 mL/s/g; the “PoS, flow-corrected” value is on record as 3–6 10^–4 mL/s/g. In series [3] (in vivo), the “Log Po” value is −5.24 and the Po turned out to be 5.69e-06 cm/s. In addition, the “Brain Equilibration t1/2, Calculated” value (plasma) was 21 min. Besides, the “Log Doct pH=7.4” value in series [4] is reported as −1.36. Besides, the “Brain Equilibration t1/2, Measured” value in series [5] is on record as 17 min. For the same compound, the “fu,.p” value in series [6] (rat) was 1.00.
Regarding `CCCC(C)C1(CC)C(=O)NC(=O)NC1=O` (stereo not shown) [Pentobarbital], the “fn (%)” value in [2] (setting [12]) is reported as 75.1%. For the same compound, the half-life (usually the time in which the quantity being followed falls by half) in [7] was found to be 1.44 min. The compound also registered a half-life in series [7] (plasma) of 1.4 min. Besides, in [3] (in vivo, pH 7.4), the “Log Pc” value was −3.35, the “Log PoS” value is listed as −1.22, the Pc turned out to be 0.00045 cm/s and the PcS came out at 0.045 mL/s/g. Moreover, in series [3] (in vivo, pH 7.4), the PoS is 0.0599 mL/s/g, the “Log Po” value was −3.22 and the Po amounted to 0.000599 cm/s. In addition, the half-life in the series “in vivo” is 1.15 min. Further, in series [4] (setting [13]), the “Log Poct” value was 2.08 and the “Log Doct pH=7.4” value is reported as 2.01. Also, the “fu,.p” value in [6] (rat in vivo measurements) is recorded as 0.60.
For the compound `C[N+](C)(C)CCO` [Choline], the “Log PS” value with Choline transporter is reported as −2.89. Further, in the series with Choline transporter (S 20 s), the PS is 0.0013 mL/s/g. Further, in series [8], the “Log Doct 7.4” value is −3.70.
Regarding `N[C@@H](Cc1ccc(O)c(O)c1)C(=O)O` [L-DOPA], the LogPS at Lat-1 (setting [14]) is −1.99. The PS at Lat-1 (setting [15]) was found to be 0.0102 mL/s/g. In series [8], the “Log Doct 7.4” value is −2.7 and the “Log Poct” value is −0.22.
On to L-Lactate, for which the PS on MAT1 stood at 0.00125 mL/s/g. In addition, in series [8], the “Log Doct 7.4” value is given as −0.70.
With `Cc1cc(=O)n(-c2ccccc2)n1C` [Antipyrine], the “fn (%)” value in [2] (setting [12]) is recorded as 100%. Moreover, the half-life is 0.93 min in series [7] (brain) and 1 min in the series “in vivo”. Besides, the “Brain Kin” value (calculated at brain blood flow […] and rat serum fu) is 0.0143 mL/s/g. Besides, for the setting “calculated at brain blood flow […], free drug”, the “Extraction (unbound)” value is 62.7%. Moreover, the “Brain vascular extraction (total)” value (calculated at brain blood flow […], with rat serum fu) is reported as 59.7%. Moreover, in series [9], the “brain vascular PS” value is 0.02 to 0.025 mL/s/g. Further, the “fu,.p” value in [6] (rat in vivo measurements) is 0.92. Besides, the “Brain Vu,br” value in [10] is reported as 1.25 mL/g.
Compound `N[C@@H](Cc1cc(I)c(Oc2ccc(O)c(I)c2)c(I)c1)C(=O)O` [L-T3] displayed a PS at MCT8 L-T3 Transporter of 0.0146 mL/s/g.
Compound `CC(C)C[C@H](N)C(=O)O` [L-Leucine] gave a LogPS on Lat-1 (setting [14]) of −1.45. This compound displayed a PS on Lat-1 (setting [15]) of 0.0354 mL/s/g. In addition, in series [8], the “Log Doct 7.4” value was found to be 0.73.
As for `CN1C(=O)CN=C(c2ccccc2)c2cc(Cl)ccc21` [Diazepam], the “fn (%)” value in series [2] (pH 7.4) is 100%. Also, the “PS for liver membrane” value in series [11] was 0.4 mL/s/g.
With `CCC1(CC)C(=O)NC(=O)NC1=O` [Barbital], the “fn (%)” value in series [2] (setting [12]) is listed as 79.9%. Moreover, the half-life in series [7] worked out at 3.63 min. In series [7] (plasma), the half-life came to 3.6 min. Besides, in [3] (in vivo, pH 7.4), the “Log Pc” value is reported as −4.42, the “Log PoS” value was −2.32, the Pc is 3.81e-05 cm/s and the PcS turned out to be 0.0038 mL/s/g. Also, in series [3] (in vivo, pH 7.4), the PoS worked out at 0.00477 mL/s/g, the “Log Po” value is given as −4.32 and the Po was found to be 4.77e-05 cm/s. Besides, in [4] (setting [13]), the “Log Poct” value is 0.65 and the “Log Doct pH=7.4” value is listed as 0.64. The “Brain Equilibration t1/2, Measured” value in [5] is on record as 3.27 min. Also, the “fu,.p” value in [6] (rat in vivo measurements) is reported as 0.985.
In turn, `CNC[C@H](N)C(=O)O` [L-BMAA] gave a LogPS at Lat-1 (setting [14]) of −3.27. Further, the PS on Lat-1 (setting [15]) came out at 0.000542 mL/s/g. Further, in series [8], the “Log Doct 7.4” value is listed as −3.4 and the “Log Poct” value is −0.85.
As to `NCC1(CC(=O)O)CCCCC1` [Gabapentin], on Lat-1 (rat, in vivo, pH 7.4), the LogPS is −2.33 and the PS turned out to be 0.00473 mL/s/g. For the same compound, in series [8], the “Log Doct 7.4” value was −1.4 and the “Log Poct” value is recorded as 1.19.
